Key:
[1] = approximate acute toxicity (MILLER and TAINTER); details: mouse, in vivo, mice
Experimental: The approximate acute toxicity is determined according to the method described by MILLER and TAINTER in Proc. Soc. Exp. Biol. Med. 57, 261 (1944).

male SWISS-WEBSTER mice = assay: mnesic retention test of exploratory activity (APELAB ACTIMETER); assay type: in vivo; details: re-measured after a week; for inhibition in vivo at 10 mg/kg: dose 10 mg/kg i.v.
[2] = Mus musculus, iv, 168 h, dose 3 mg/kg i.v., read-out: Mnesic test: % reduction of the exploratory activity
[3] = Mus musculus, iv, 168 h, read-out: Mnesic test: % reduction of the exploratory activity
[4] = Mus musculus, iv, 168 h, dose 1 mg/kg i.v., read-out: Mnesic test: % reduction of the exploratory activity

Question: Which results are given for `COc1cc(/C=C/C(=O)N2CCN(CC(N)=O)CC2)cc(OC)c1OC` [Code number 11, trans-1-(3,4,5-trimethoxy)cinnamoyl 4-aminocarbonylmethyl piperazine]?
Answer: mortality ([1]; iv, dose 200 mg/kg i.v.): 0%; inhibition in vivo at 3 mg/kg (male SWISS-WEBSTER mice; [2]): 28.4%

Question: Which mortality ([1]; iv, dose 200 mg/kg i.v.) does the source give for `COc1cc(/C=C/C(=O)N2CCN(CC(=O)NC3CCCC3)CC2)cc(OC)c1OC` [compound 23] here?
Answer: 0%

Question: What about the inhibition in vivo at 3 mg/kg (male SWISS-WEBSTER mice; [2]) of the same molecule?
Answer: 18.4%

Question: For `COc1cc(/C=C/C(=O)N2CCN(CC(=O)NC(C)C)CC2)ccc1O` [compound 26], which inhibition in vivo at 10 mg/kg (male SWISS-WEBSTER mice; [3]) is on record?
Answer: 14.3%

Question: For `COc1cc(/C=C/C(=O)N2CCN(CC(=O)NCc3cc(OC)c(OC)c(OC)c3)CC2)cc(OC)c1OC` [compound 29], which mortality ([1]; iv, dose 200 mg/kg i.v.) is on record?
Answer: 0%

Question: And the inhibition in vivo at 3 mg/kg (male SWISS-WEBSTER mice; [2])?
Answer: 9.9%

Question: Which mortality ([1]; iv, dose 200 mg/kg i.v.) does the source give for `O=C(/C=C/c1ccccc1)N1CCN(CC(=O)N2CCCC2)CC1` [compound 36] here?
Answer: 0%

Question: And the inhibition in vivo at 10 mg/kg (male SWISS-WEBSTER mice; [3])?
Answer: 18.4%

Question: What does the source list for `O=C(/C=C/c1ccc2c(c1)OCO2)N1CCN(CC(=O)N2CCCC2)CC1` [compound 37]?
Answer: mortality ([1]; ip, dose 400 mg/kg i.p.): 0%; inhibition in vivo at 1 mg/kg (male SWISS-WEBSTER mice; [4]): 25.2%

Question: What does the source list for `O=C(/C=C/c1ccc(F)cc1)N1CCN(CC(=O)N2CCCC2)CC1` [compound 38]?
Answer: mortality ([1]; iv, dose 200 mg/kg i.v.): 10%; inhibition in vivo at 3 mg/kg (male SWISS-WEBSTER mice; [2]): 28.6%

Question: What does the source list for `O=C(/C=C/c1ccc(Cl)c(Cl)c1)N1CCN(CC(=O)N2CCCC2)CC1` [compound 40]?
Answer: mortality ([1]; iv, dose 120 mg/kg i.v.): 50%; inhibition in vivo at 3 mg/kg (male SWISS-WEBSTER mice; [2]): 28.9%

Question: Which inhibition in vivo at 10 mg/kg (male SWISS-WEBSTER mice; [3]) does the source give for `COc1cc(/C=C/C(=O)N2CCN(CC(=O)N3CCCC3)CC2)cc(OC)c1` [compound 43] here?
Answer: 23.8%

Question: For `O=C(/C=C/c1ccc(Cl)cc1)N1CCN(CC(=O)N2CCCC2)CC1` [compound 47], which mortality ([1]; iv, dose 200 mg/kg i.v.) is on record?
Answer: 0%

Question: What about the inhibition in vivo at 1 mg/kg (male SWISS-WEBSTER mice; [4]) of the same molecule?
Answer: 26.5%

Question: What does the source list for `COc1ccccc1/C=C/C(=O)N1CCN(CC(=O)N2CCCC2)CC1` [compound 48]?
Answer: mortality ([1]; iv, dose 200 mg/kg i.v.): 0%; inhibition in vivo at 30 mg/kg (male SWISS-WEBSTER mice; Mus musculus, iv, 168 h, dose 30 mg/kg i.v., read-out: Mnesic test: % reduction of the exploratory activity): 26.1%

Question: What does the source list for `COc1ccc(OC)c(/C=C/C(=O)N2CCN(CC(=O)N3CCCC3)CC2)c1` [compound 49]?
Answer: mortality ([1]; iv, dose 205 mg/kg i.v.): 50%; inhibition in vivo at 1 mg/kg (male SWISS-WEBSTER mice; [4]): 15.7%

Question: For `O=C(/C=C/c1ccc2c(c1)OCO2)N1CCN(CC(=O)N2CCCCC2)CC1` [compound 55], which inhibition in vivo at 3 mg/kg (male SWISS-WEBSTER mice; [2]) is on record?
Answer: 18.7%

Question: Which inhibition in vivo at 3 mg/kg (male SWISS-WEBSTER mice; [2]) does the source give for `O=C(/C=C/c1ccc(Cl)cc1)N1CCN(CC(=O)N2CCCCC2)CC1` [compound 56] here?
Answer: 23.5%

Question: For “trans-1-(3,4,5-trimethoxy)cinnamoyl 4-(2-hydroxy)ethyl piperazine maleate [Code number 2]”, which “Mnesic test: % reduction of the exploratory activity” value (male SWISS-WEBSTER mice; dose 3 mg/kg i.v.) is on record?
Answer: 17.5%

Question: Which “Mnesic test: % reduction of the exploratory activity” value (male SWISS-WEBSTER mice; dose 1 mg/kg i.v.) does the source give for “trans-1-(3,4-methylenedioxy)cinnamoyl 4-pyrrolidinocarbonyl piperazine, hydrochloride [Code number 37]” here?
Answer: 14.7%

From US4639452A, “Arylic derivatives of piperazine, the method of preparing same and their application in therapeutics” (Delalande S.A., priority 1982, dated 1987)
